Experimental data as given in publication PMC6149722, “Comparison of the Binding of Reversible Inhibitors to Human Butyrylcholinesterase and Acetylcholinesterase: A Crystallographic, Kinetic and Calorimetric Study” (Molecules : A Journal of Synthetic Chemistry and Natural …, 2017).
Structures can show the parent of a compound that is named as a salt. Where two headings read alike, the source gives them in different places.

Columns and labels:
BChE [1] = details: cited from earlier work
hBChE [2] = details: specificity for BChE; cited from earlier work
hBChE [3] = target: hBChE (Homo sapiens, UniProt P06276, N45Q/N483Q/N509Q/N514Q); assay: biochemical; assay type: binding; details: for n (±SD), binding stoichiometry / ΔG (±SD), Gibbs free energy of binding / ΔH (±SD), binding heat: hBChE, ITC, 25 °C, pH 7.4
Sequence of hBChE (Homo sapiens, UniProt P06276, N45Q/N483Q/N509Q/N514Q) (P06276 29-557 N45Q/N483Q/N509Q/N514Q): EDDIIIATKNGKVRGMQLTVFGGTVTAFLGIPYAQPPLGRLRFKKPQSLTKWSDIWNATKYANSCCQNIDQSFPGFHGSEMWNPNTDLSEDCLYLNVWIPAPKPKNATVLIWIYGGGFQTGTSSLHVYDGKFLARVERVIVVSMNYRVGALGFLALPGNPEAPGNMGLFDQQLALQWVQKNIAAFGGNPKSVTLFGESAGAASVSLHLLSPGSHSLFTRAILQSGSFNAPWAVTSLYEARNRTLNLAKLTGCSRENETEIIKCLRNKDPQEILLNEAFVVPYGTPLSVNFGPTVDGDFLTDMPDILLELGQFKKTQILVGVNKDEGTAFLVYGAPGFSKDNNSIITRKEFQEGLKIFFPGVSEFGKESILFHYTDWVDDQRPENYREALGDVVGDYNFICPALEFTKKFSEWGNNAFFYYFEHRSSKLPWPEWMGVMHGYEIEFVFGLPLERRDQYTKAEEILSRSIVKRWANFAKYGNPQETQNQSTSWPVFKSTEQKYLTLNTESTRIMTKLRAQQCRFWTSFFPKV

hBChE [4] = assay: biochemical; assay type: binding; details: ITC KD, hAChE vs hBChE
AChE [5] = details: cited from earlier work
hAChE [6] = target: T1, hAChE (Homo sapiens, UniProt P22303); assay: biochemical; assay type: binding; details: for n (±SD), binding stoichiometry / ΔG (±SD), Gibbs free energy of binding / ΔH (±SD), binding heat: hAChE, ITC, 25 °C, pH 8.0
T1 sequence (P22303 32-574): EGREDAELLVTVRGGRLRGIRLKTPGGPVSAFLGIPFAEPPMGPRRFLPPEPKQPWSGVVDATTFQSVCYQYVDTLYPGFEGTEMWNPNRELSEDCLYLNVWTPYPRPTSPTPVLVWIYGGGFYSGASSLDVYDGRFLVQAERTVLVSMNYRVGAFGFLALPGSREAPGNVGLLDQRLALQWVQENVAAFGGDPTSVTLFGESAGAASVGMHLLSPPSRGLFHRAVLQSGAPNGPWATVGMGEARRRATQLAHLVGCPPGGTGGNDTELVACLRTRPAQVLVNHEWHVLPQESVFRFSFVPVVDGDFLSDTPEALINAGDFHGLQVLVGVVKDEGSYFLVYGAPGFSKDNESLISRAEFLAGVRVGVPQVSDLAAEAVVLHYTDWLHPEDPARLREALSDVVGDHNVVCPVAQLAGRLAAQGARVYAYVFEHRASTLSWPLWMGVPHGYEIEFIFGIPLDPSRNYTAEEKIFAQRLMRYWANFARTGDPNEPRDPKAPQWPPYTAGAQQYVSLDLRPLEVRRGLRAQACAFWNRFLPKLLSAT

BChE [7] = target: T2, BChE (Homo sapiens, UniProt P06276); design: method as in PMID 22901043; details: cited from earlier work
T2 construct: Purified human plasma wild-type BChE was a gift from Dr. Oksana Lockridge; tissue gift from Dr. Oksana Lockridge (University of Nebraska Medical Center); host or cells: human plasma
T2 sequence (P06276 29-602): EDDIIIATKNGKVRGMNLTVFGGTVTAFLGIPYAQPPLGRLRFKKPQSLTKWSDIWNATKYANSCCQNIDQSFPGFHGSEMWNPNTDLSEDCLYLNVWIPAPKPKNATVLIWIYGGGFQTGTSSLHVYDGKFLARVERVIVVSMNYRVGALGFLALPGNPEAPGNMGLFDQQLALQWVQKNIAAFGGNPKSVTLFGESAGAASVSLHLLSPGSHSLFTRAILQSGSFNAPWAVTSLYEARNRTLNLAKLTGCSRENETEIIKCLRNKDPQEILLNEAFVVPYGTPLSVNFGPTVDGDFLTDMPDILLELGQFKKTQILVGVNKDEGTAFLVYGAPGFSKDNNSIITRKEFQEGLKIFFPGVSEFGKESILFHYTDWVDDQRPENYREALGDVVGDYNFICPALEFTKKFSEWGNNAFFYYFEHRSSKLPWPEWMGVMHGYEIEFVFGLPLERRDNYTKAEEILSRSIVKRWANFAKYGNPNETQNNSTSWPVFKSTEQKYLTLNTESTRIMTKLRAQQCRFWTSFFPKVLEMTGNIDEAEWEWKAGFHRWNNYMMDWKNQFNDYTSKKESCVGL

AChE [8] = details: cited from earlier work; remark: listed apart in the source
BChE [9] = target: T2, BChE; details: in the presence of thioflavin T; cited from earlier work
BChE [10] = target: T2, BChE; assay: Inhibition of second-order substrate hydrolysis by BChE (inhibition constants KI); assay type: biochemical
Method: To further compare the binding sites of inhibitors with AChE and BChE, we employed an inhibitor competition assay. This assay is designed to detect any ternary complex formed when two inhibitors are added to AChE or BChE simultaneously. The assay is conducted with a substrate like acetylthiocholine whose second-order hydrolysis at low substrate concentrations is diffusion controlled and thus is inhibited by ligands that bind to either the A-site or the P-site (see Figure 7A below). Individual inhibition constants KI were obtained by plotting the ratios of the hydrolysis rate constant kE at various concentrations of one inhibitor (kE + I) to kE in the absence of inhibitor (kE [I] = 0) against inhibitor concentration. Inhibitor competition was then assessed by determining ratios of kE at a fixed concentration ([I1]) of inhibitor 1 and various concentrations ([I2]) of inhibitor 2 (kE + I2) to kE at the same [I1] in the absence of [I2] (kE [I2] = 0) and plotting these ratios against [I2]. These plots were analyzed with Equation (5) (described in the Materials and Methods Section 4.4) to obtain the relative affinity of I1 in its binary complex with enzyme E to I1 in a ternary complex with I2 and E (K12/K1). […].
For enzyme kinetics experiments, purified recombinant hAChE (~1500 units as determined by the supplier) was purchased from Sigma Aldrich (St. Louis, MO, USA). The AChE concentration was calculated using the assumption of 450 units/nmol (4.8 ∆A412/(min × nM)). Purified human plasma wild-type BChE was a gift from Dr. Oksana Lockridge (University of Nebraska Medical Center, Omaha, NE, USA). BChE concentration was calculated assuming 62.5 unit/nmol (0.94 ∆A412/(min × nM)). As defined previously, […] is the amount of BChE that gives 1.0 ∆A/min in the presence of 1.6 × 10^−4 M butyrylthiocholine in a 1.5 mL assay.
Inhibition constants for inhibitors of BChE were determined using a modification of a previously described method. Briefly, varying amounts of inhibitor (in 50 μL of 50% CH3CN(aq)) were added to 1.60 mL of buffer (0.09 M phosphate buffer, pH 8.0), 5,5′-dithio-bis (2-nitrobenzoic acid) (0.32 mM), and butyrylthiocholine substrate (5 μM) in a quartz cuvette of 1 cm path length, and the mixture was zeroed at 412 nm. The reaction was initiated by the addition of 50 μL of BChE (to 0.68 nM) in 0.1% aqueous gelatin. Assays were conducted at 23 °C. The absorbance (A), reflecting the cumulative hydrolysis of the substrate, was recorded every 5–20 s using an Ultraspec 2100 pro ultra violet (UV)-visible spectrophotometer (Fisher Scientific, Toronto, ON, Canada) equipped with Swift II application software. […]
In Equation (1), A412 is absorbance, [E]tot is the total enzyme concentration, kobs = kE[E]tot, and ΔA412 = A412(final) − A412(t = 0). […]

BChE [11] = target: T2, BChE; assay type: biochemical; details: binding site competition ratio of each inhibitor (I1) in the presence of decamethonium (I2), >> 1 denotes competition at the same site
Method: This assay is designed to detect any ternary complex formed when two inhibitors are added to AChE or BChE simultaneously [15, 23, 34, 41, 42, 43]. The assay is conducted with a substrate like acetylthiocholine whose second-order hydrolysis at low substrate concentrations is diffusion controlled and thus is inhibited by ligands that bind to either the A-site or the P-site [15] […] Inhibitor competition was then assessed by determining ratios of kE at a fixed concentration ([I1]) of inhibitor 1 and various concentrations ([I2]) of inhibitor 2 (kE + I2) to kE at the same [I1] in the absence of [I2] (kE [I2] = 0) and plotting these ratios against [I2]. These plots were analyzed with Equation (5) (described in the Materials and Methods Section 4.4) to obtain the relative affinity of I1 in its binary complex with enzyme E to I1 in a ternary complex with I2 and E (K12/K1).
Determining rates of substrate hydrolysis in the presence of two inhibitors provides information that indicates whether these inhibitors are interacting with the same or different enzyme binding sites [15]. […]
In this equation, K1, K2, and K12 are the equilibrium dissociation constants for I1 with E, I2 with E, and I1 with the E I2 complex, respectively. Individual inhibition constants (e.g., K2) could be determined from Equation (5) with [I1] fixed at 0. […]

hAChE [12] = target: T1, hAChE; details: read-out: AChE KI, recalculated from data obtained in ref 23; cited from earlier work

| Structure (SMILES) | IC50 (BChE [1]) | Kd (hBChE [3]) | n (±SD), binding stoichiometry (hBChE [3]) | ΔG (±SD), Gibbs free energy of binding (hBChE [3]) | ΔH (±SD), binding heat (hBChE [3]) | difference in KD values between AChE and BChE (hBChE [4]) | n (±SD), binding stoichiometry (hAChE [6]) | ΔG (±SD), Gibbs free energy of binding (hAChE [6]) | ΔH (±SD), binding heat (hAChE [6]) | other results |
| --- | --- | --- | --- | --- | --- | --- | --- | --- | --- | --- |
| NCCC1=CC2Cc3nc4cc(Cl)ccc4c(N)c3C(C1)C2 (centres unmarked) [huprine 19] | 0.9 µM | – | – | – | – | – | – | – | – | – |
| CCN(CC)C(C)CN1c2ccccc2Sc2ccccc21 (centres unmarked) [Ethopropazine, ethopropazine hydrochloride] | – | 1.1 ± 0.1 µM | 1.0 ± 0.1 | -8.15 ± 0.048 kcal/mol | -10.4 ± 1.53 kcal/mol | ~20 fold | – | – | – | difference in Ki between hAChE and hBChE (hBChE [2]): 9000 fold; n (±SD), binding stoichiometry (hBChE [3]; listed as ethopropazine): ~ 1 |
| Nc1c2c(nc3cc(Cl)ccc13)C[C@H]1C=C(CCO)C[C@@H]2C1 [huprine W] | 1.2 µM | – | – | – | – | – | – | – | – | IC50 (AChE [5]): 0.0011 µM |
| CC[N+](C)(C)c1cccc(O)c1 [Edrophonium, edrophonium chloride] | – | 27.2 ± 2.4 µM | 0.9 ± 0.1 | -6.24 ± 0.072 kcal/mol | -3.01 ± 0.406 kcal/mol | ~20 fold | 0.8 ± 0.3 | -8.03 ± 0.19 kcal/mol | -6.31 ± 1.89 kcal/mol | n (±SD), binding stoichiometry (hAChE [6]; listed as edrophonium): ~ 1; Ki (BChE [7]; BChE, updated from data in ref 23): 49 ± 3 µM; Ki (BChE [7]; read-out: BChE KI, hBChE, recalculated from data obtained in ref 23): 49 ± 3 µM; AChE K12/K1 (AChE [8]; binding site competition ratio in the presence of thioflavin T, recalculated from data obtained in ref 23): 2.9 ± 0.2; AChE K12/K1 competition class (AChE [8]; in the presence of thioflavin T): NC (A K12/K1 ratio of ~1 indicates no competition at binding sites (NC)); BChE K12/K1 competition class (BChE [9]): PC (intermediate ratios indicate partial competition (PC)); n (±SD), binding stoichiometry (hBChE [3]; listed as edrophonium): ~ 1 |
| Cc1ccc2c(c1)sc(-c1ccc(N(C)C)cc1)[n+]2C [Thioflavin-T, ThT chloride] | – | 2.6 ± 0.5 µM | 2.2 ± 0.1 | -7.65 ± 0.14 kcal/mol | -2.72 ± 0.14 kcal/mol | about 7 fold | 1 | -6.5 kcal/mol | -5.66 kcal/mol | Ki (BChE [10]; BChE 0.68 nM, butyrylthiocholine 5 µM, second-order dependence on inhibitor concentration, read-out: KI (fitted with Equation (4))): 1.61 ± 0.11 µM; KII (fitted with Equation (4)) (BChE [10]; BChE 0.68 nM, butyrylthiocholine 5 µM, second-order term): 5.84 ± 0.16 µM^2; KI12/KI1 (maximum for the affinity in the binary complex relative to that in the ternary complex) (BChE [10]; BChE, two molecules of inhibitor, maximum reached when KI1 = KI2): 0.56 ± 0.04; Kd (hAChE [6]): 17.7 µM; n (±SD), binding stoichiometry (hAChE [6]; listed as ThT): ~ 1; K12/K1 (BChE [11]): >200; Ki (hAChE [12]): 3.9 ± 0.4 µM |
| C[N+](C)(C)CCCCCCCCCC[N+](C)(C)C [Decamethonium, decamethonium bromide] | – | – | – | – | – | – | – | – | – | Ki (BChE [10]): 4.5 ± 0.2 µM |
